The text below walks through data of patent US11406713B2, “Xanthine oxidase inhibitor formulations” (XORTX THERAPEUTICS, INC., priority 2013, dated 2022).

The conditions of data set [1]: background statement; cited from earlier work.
The conditions of data set [2]: background statement; cited from earlier work. This is another data set of the same source.
The nature of data set [3]: equilibrium solubility and dissolution profile of oxypurinol in aqueous solution. It counts as physicochemical. To be noted: for equilibrium solubility, dissolution and solubility: compared to oxypurinol free acid (FIG. 1).

The structures appear in SMILES notation.

For `Oc1ncnc2[nH]ncc12` [Allopurinol, 4-hydroxy-pyrazolo[3,4-d]pyrimidine], the bioavailability entry in data set [1] is listed as “poorly bioavailable”. Besides, the solubility entry in data set [2] was “poorly soluble”.
Take `O=c1[nH]c(=O)c2c[nH]nc2[nH]1` [oxypurinol, 4,6-dihydroxypyrazolo[3,4-d]pyrimidine]: the “equilibrium solubility, dissolution and solubility” value in data set [3] (aqueous solution, in the presence of a 1 molar equivalent of lysine, FIG. 2) is “increased dissolution and solubility”; in data set [3] (in the presence of a 1 molar equivalent of L-arginine, FIG. 3) it was “increased dissolution and solubility”. Further, the “equilibrium solubility, dissolution” value in data set [3] (in choline, FIG. 4) is recorded as “increased dissolution”. For the same molecule, the “equilibrium solubility, dissolution rate and solubility” value in data set [3] (using organic and or basic organic molecules, in aqueous solutions, compared to oxypurinol free acid) was “increased equilibrium solubility, increased dissolution rate and solubility”. For the same molecule, the bioavailability entry in data set [1] was “poorly bioavailable”. Further, the solubility entry in data set [2] is recorded as “poorly soluble”.
